Read-outs that look alike come from different tables or passages of the source.
Tested on: patients with primary aldosteronism
Experimental: A double-blind, randomized, Phase 2 trial was conducted between November 2019 and June 2022 at 11 centres in Italy, Switzerland and the Netherlands (NCT04007406). […] Patients requiring fixed-dose antihypertensive therapy continued treatment throughout the study; steroid therapies, β-adrenergic and renin-angiotensin-aldosterone system blockers were not permitted. At 14-day intervals, office blood pressures were recorded and blood samples were taken for measurement of steroid and peptide hormones and electrolytes at a central laboratory.
The urinary content of tetrahydroaldosterone (THA) was measured centrally by gas chromatography-coupled mass spectrometry (GC-MS).

[1] = 4 mg once daily, n=10, Day 1 (baseline)
[2] = 8 mg once daily, n=12, Day 1 (baseline)
[3] = 12 mg once daily, n=13, Day 1 (baseline)

Substance: (R)-(+)-5-(p-cyanophenyl)-5,6,7,8-tetrahydroimidazolium[1,5-a]pyridine dihydrogen phosphate [dexfadrostat phosphate]
- change in urine THA content from baseline to Day 56, mean (4 mg once daily, n=10): −66.90 24 μg/24-hour
- change in urine THA content from baseline to Day 56, median (4 mg once daily, n=10): −61.00 24 μg/24-hour
- urine tetrahydroaldosterone (THA) content, mean [1]: 78.90 24 μg/24-hour
- urine tetrahydroaldosterone (THA) content, median [1]: 80.00 24 μg/24-hour
- urine tetrahydroaldosterone (THA) content, mean (4 mg once daily, n=10, Day 56): 12.00 24 μg/24-hour
- urine tetrahydroaldosterone (THA) content, median (4 mg once daily, n=10, Day 56): 11.50 24 μg/24-hour
- change in urine THA content from baseline to Day 56, mean (8 mg once daily, n=12): −63.00 24 μg/24-hour
- change in urine THA content from baseline to Day 56, median (8 mg once daily, n=12): −50.00 24 μg/24-hour
- urine tetrahydroaldosterone (THA) content, mean [2]: 71.67 24 μg/24-hour
- urine tetrahydroaldosterone (THA) content, median [2]: 59.50 24 μg/24-hour
- urine tetrahydroaldosterone (THA) content, mean (8 mg once daily, n=12, Day 56): 8.67 24 μg/24-hour
- urine tetrahydroaldosterone (THA) content, median (8 mg once daily, n=12, Day 56): 5.00 24 μg/24-hour
- change in urine THA content from baseline to Day 56, mean (12 mg once daily, n=13): −58.31 24 μg/24-hour
- change in urine THA content from baseline to Day 56, median (12 mg once daily, n=13): −66.00 24 μg/24-hour
- urine tetrahydroaldosterone (THA) content, mean [3]: 67.38 24 μg/24-hour
- urine tetrahydroaldosterone (THA) content, median [3]: 69.00 24 μg/24-hour
- urine tetrahydroaldosterone (THA) content, mean (12 mg once daily, n=13, Day 56): 9.08 24 μg/24-hour
- urine tetrahydroaldosterone (THA) content, median (12 mg once daily, n=13, Day 56): 5.00 24 μg/24-hour
- effect on urinary tetrahydroaldosterone content (all three doses, 24-hour urine at end of active treatment vs baseline): significant reductions (p<0.0001) in tetrahydroaldosterone (THA) content
- urine aldosterone content, mean (baseline urine aldosterone 10-50 μg/24-hour, 4 mg QD, Day 1 (baseline)): 26 μg/24-hour
- urine aldosterone content, mean (baseline urine aldosterone 10-50 μg/24-hour, 4 mg QD, Day 56): 6 μg/24-hour
- urine aldosterone content, mean (baseline urine aldosterone 10-50 μg/24-hour, 8 mg QD, Day 1 (baseline)): 33 μg/24-hour
- urine aldosterone content, mean (baseline urine aldosterone 10-50 μg/24-hour, 8 mg QD, Day 56): 8 μg/24-hour
- urine aldosterone content, mean (baseline urine aldosterone 10-50 μg/24-hour, 12 mg QD, Day 1 (baseline)): 29 μg/24-hour
- urine aldosterone content, mean (baseline urine aldosterone 10-50 μg/24-hour, 12 mg QD, Day 56): 3 μg/24-hour
- urine aldosterone content, mean (baseline urine aldosterone 50-100 μg/24-hour, 4 mg QD, Day 1 (baseline)): 74 μg/24-hour
- urine aldosterone content, mean (baseline urine aldosterone 50-100 μg/24-hour, 4 mg QD, Day 56): 15 μg/24-hour
- urine aldosterone content, mean (baseline urine aldosterone 50-100 μg/24-hour, 8 mg QD, Day 1 (baseline)): 69 μg/24-hour
- urine aldosterone content, mean (baseline urine aldosterone 50-100 μg/24-hour, 8 mg QD, Day 56): 5 μg/24-hour
- urine aldosterone content, mean (baseline urine aldosterone 50-100 μg/24-hour, 12 mg QD, Day 1 (baseline)): 68 μg/24-hour
- urine aldosterone content, mean (baseline urine aldosterone 50-100 μg/24-hour, 12 mg QD, Day 56): 12 μg/24-hour
- urine aldosterone content, mean (baseline urine aldosterone 100-250 μg/24-hour, 4 mg QD, Day 1 (baseline)): 123 μg/24-hour
- urine aldosterone content, mean (baseline urine aldosterone 100-250 μg/24-hour, 4 mg QD, Day 56): 13 μg/24-hour
- urine aldosterone content, mean (baseline urine aldosterone 100-250 μg/24-hour, 8 mg QD, Day 1 (baseline)): 69 μg/24-hour
- urine aldosterone content, mean (baseline urine aldosterone 100-250 μg/24-hour, 8 mg QD, Day 56): 5 μg/24-hour
- urine aldosterone content, mean (baseline urine aldosterone 100-250 μg/24-hour, 12 mg QD, Day 1 (baseline)): 68 μg/24-hour
- urine aldosterone content, mean (baseline urine aldosterone 100-250 μg/24-hour, 12 mg QD, Day 56): 12 μg/24-hour

— patent US20260124184A1, “ONCE DAILY ALDOSTERONE SYNTHASE INHIBITOR (R)-(+)-5-(P-CYANOPHENYL)-5,6,7,8-TETRAHYDROIMIDAZO[L,5-A]PYRIDINE” (priority 2022, published 2026)
